{"source": "patent US6653354B2", "about": "“NMDA antagonist comprising xenon” (priority 1999, dated 2003)", "key": {"[1]": {"tested_on": "GABAergic synapses (GABAA receptors) of hippocampal neurons", "format": "cell-based, rat", "experimental": "Hippocampal neurons were grown in culture using methods described previously (Segal M M et al, J. Neurophysiol. 1990, 64:1390-1399; Bekkers J M et al, Proc. Natl. Acad. Sci. U.S.A. 1991, 88:7834-7838; Mennerick S et al, J. Neurophysiol. 1995, 73:320-332). Briefly, hippocampi from Sprague Dawley rats (postnatal day 1-3) were dissected, roughly sliced and agitated in a papain-containing solution (20 units ml^−1) for 30 minutes at 37 EC. After washing with enzyme-free solution, the tissue was gently triturated with a fire-polished Pasteur pipette and the cells were plated out at a density of 8-10×10^4 cells ml^−1 and cultured (95% air/5% CO2) at 37° C. Glass coverslips used for culturing the cells were first coated with agarose (0.15% w/v) and then sprayed with a fine mist of poly-D-lysine (PDL) and collagen (0.1 mg ml^−1 PDL and 0.5 mg ml^−1 rat-tail collagen) from a glass micro-atomiser and sterilized by UV exposure. This produced micro-islands of permissive substrate with diameters of between 100 and 1000 μm. At 3-4 days after plating, when the glial cell layer was about 80% confluent, an anti-mitotic agent (cytosine β-D-arabinofuranoside, 5 μM) was added to arrest glial cell proliferation. Neuronal cultures were then allowed to mature for another 4-9 days. We used micro-islands which contained single isolated neurons whose axonal processes and dendritic trees formed multiple self-synapses (autapses). This procedure provided a large population of phenotypically identical monosynaptic connections.\nThe neurons were voltage-clamped using the whole-cell recording technique (Axopatch 200 amplifier, Axon Instruments, Foster City, Calif.). Electrodes were fabricated from borosilicate glass and typically had resistances of between 3-5 MΩ. Series resistance was compensated by 75-90%. Neurons were voltage-clamped at −60 mV, and synaptic responses were stimulated by a 2 ms depolarising pulse to +20 mV. […] For the synaptic measurements, data were sampled at 50 kHz, filtered at 20 kHz (−3 dB, 8-pole Bessel) and stored on a computer. The extracellular recording solution was (mM) 137 NaCl, 5 KCl, 3 CaCl2, 5 HEPES, 10 glucose, 0.001 glycine, 0.0001 strychnine-HCl, titrated to pH 7.3 with NaOH; and the intracellular (pipette) solution was (mM) 140 KCl, 4 NaCl, 0.5 EGTA, 2 MgATP, 10 HEPES, titrated to pH 7.25 with KOH.\nXenon solutions were prepared by first bubbling pure gases (oxygen, nitrogen or xenon) through fine sintered-glass bubblers in 250- or 500-ml Drechsel bottles filled with extracellular recording saline. […] (To minimise oxidization, the neurotoxins and neurotransmitters were excluded from the fully oxygenated saline.) During bubbling, the solutions were continually stirred at room temperature. These solutions were then mixed to achieve the desired final concentrations of the gases. Our control solutions usually contained 80% of the nitrogen solution and 20% of the oxygen solution, while our test solutions usually contained 80% of the xenon solution and 20% of the oxygen solution. Using a Bunsen water/gas partition coefficient of 0.0965 (Smith R A et al, Biochim. Biophys. Acta 1981, 645:327-338) we calculate that our standard test solution contained 3.4 mM xenon. Xenon (research grade, 99.993% pure) was supplied by BOC gases, Guildford, Surrey, UK. In all cases xenon was pre-applied to the neurons for at least 30 seconds before the initiation of synaptic currents.\nIn order to obtain an estimate for the total charge transfer, the EPSCs or IPSCs were numerically integrated."}, "GABAA receptors": {"target": "T1, GABAA receptors (Bos taurus, UniProt P08219+P08220+P22300)", "T1 construct": "expressed in transfected cells", "T1 sequence (P08219 28-456)": "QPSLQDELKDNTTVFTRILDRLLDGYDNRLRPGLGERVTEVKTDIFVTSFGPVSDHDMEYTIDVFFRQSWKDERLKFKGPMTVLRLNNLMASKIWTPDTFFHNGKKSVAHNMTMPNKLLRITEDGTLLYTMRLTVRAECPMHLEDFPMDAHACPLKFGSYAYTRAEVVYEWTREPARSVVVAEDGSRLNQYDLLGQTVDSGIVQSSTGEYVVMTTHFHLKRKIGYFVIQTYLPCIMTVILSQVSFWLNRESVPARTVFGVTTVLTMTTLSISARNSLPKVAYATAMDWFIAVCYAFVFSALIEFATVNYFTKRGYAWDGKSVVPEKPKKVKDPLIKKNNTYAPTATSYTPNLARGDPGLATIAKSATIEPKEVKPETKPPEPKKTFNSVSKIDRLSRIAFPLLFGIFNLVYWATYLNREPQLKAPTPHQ", "T1 sequence (P08220 26-474)": "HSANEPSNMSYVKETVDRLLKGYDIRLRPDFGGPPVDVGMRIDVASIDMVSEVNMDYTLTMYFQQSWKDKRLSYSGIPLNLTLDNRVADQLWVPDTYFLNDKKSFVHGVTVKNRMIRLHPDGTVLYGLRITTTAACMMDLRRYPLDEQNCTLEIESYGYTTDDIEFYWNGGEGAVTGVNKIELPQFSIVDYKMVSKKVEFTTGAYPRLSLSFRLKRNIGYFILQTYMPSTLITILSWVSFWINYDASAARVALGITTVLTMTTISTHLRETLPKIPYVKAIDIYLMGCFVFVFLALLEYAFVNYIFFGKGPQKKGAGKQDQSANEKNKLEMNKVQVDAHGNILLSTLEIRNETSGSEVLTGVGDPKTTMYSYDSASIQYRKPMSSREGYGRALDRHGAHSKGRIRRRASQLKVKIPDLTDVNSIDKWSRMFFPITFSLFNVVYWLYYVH", "T1 sequence (P22300 40-475)": "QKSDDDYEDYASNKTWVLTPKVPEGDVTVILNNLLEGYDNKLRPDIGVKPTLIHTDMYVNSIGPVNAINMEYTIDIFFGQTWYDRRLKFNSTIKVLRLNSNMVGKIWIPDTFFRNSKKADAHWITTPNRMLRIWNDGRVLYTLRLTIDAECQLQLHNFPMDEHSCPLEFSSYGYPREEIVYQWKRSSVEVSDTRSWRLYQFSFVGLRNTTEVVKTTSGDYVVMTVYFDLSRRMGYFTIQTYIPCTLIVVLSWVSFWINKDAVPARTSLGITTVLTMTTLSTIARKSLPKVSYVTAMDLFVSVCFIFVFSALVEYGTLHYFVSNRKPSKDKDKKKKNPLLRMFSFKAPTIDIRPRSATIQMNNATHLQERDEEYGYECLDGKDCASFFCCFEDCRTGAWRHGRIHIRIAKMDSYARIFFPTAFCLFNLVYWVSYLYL", "test": "Currents activated by GABA in voltage-clamped PA3 cells stably expressing defined GABA subunits", "format": "cell-based", "details": "100% xenon", "description": "Studies carried out by the applicant have shown that xenon has virtually no effect on GABAA receptors."}, "[2]": {"details": "inhibitory currents + 3.4 mM xenon"}}, "note": "“Also recorded” adds a separate entry of the source.", "data": [{"smiles": "[Xe]", "note": "[xenon]", "values": [{"measurement": "effect on inhibitory (GABAergic) postsynaptic currents", "setting": "[1]; 3.4 mM xenon", "value": "negligible effects; also recorded: affected neither the peak value, nor the time course; also recorded: no significant effect"}, {"measurement": "Ipeak % change (means ± SEM)", "setting": "[1]; inhibitory currents + 3.4 mM (~1 MAC) xenon", "value": "−3.1 ± 2.2", "unit": "%"}, {"measurement": "Decay half-time % change (means ± SEM)", "setting": "[1]; [2]", "value": "−3.4 ± 2.4", "unit": "%"}, {"measurement": "Ifast % change (means ± SEM)", "setting": "[1]; [2]", "value": "−4.3 ± 2.8", "unit": "%"}, {"measurement": "Islow % change (means ± SEM)", "setting": "[1]; [2]", "value": "18.8 ± 12.4", "unit": "%"}, {"measurement": "Qfast % change (means ± SEM)", "setting": "[1]; [2]", "value": "1.5 ± 7.2", "unit": "%"}, {"measurement": "Qslow % change (means ± SEM)", "setting": "[1]; [2]", "value": "12.6 ± 8.4", "unit": "%"}, {"measurement": "Total charge transfer % change (means ± SEM)", "setting": "[1]; [2]", "value": "−2.3 ± 3.9", "unit": "%"}, {"measurement": "τfast % change (means ± SEM)", "setting": "[1]; [2]", "value": "−1.3 ± 3.5", "unit": "%"}, {"measurement": "τslow % change (means ± SEM)", "setting": "[1]; [2]", "value": "0.8 ± 6.0", "unit": "%"}, {"measurement": "effect on currents activated by 3 μM GABA", "setting": "GABAA receptors", "value": "not significantly affected"}]}]}
